Ends that are not written are not given here.
Tested on: FVBN and Mdr2KO mice
Test: Non-hepatic effects: serum biomarkers of heart (CK) and kidney (CREA, BUN), IDEXX assay system
Assay type: in vivo, mouse
Parameters: CREA / BUN: unit not given here
Settings: for effects on heart (CK) and kidneys (CREA, BUN): FVBN and Mdr2KO mice, vs vehicle-treated mice; for CK / BUN / CREA: serum
Protocol: FVB/N (FVBN) and Mdr2^−/− (Mdr2KO) mice were purchased from Jackson Laboratory (Bar Harbor, Me.) and maintained in a temperature-controlled environment at 20-22° C. with a 12:12 hours light-dark cycle, having free access to food and drinking water. All animal procedures were performed in accord with the guidelines of Baylor Scott and White (Temple, Tex.) Institutional Animal Care and Use Committee, with approved protocols. In time-course experiments, 1 week, 1 months, 2 months and 4 months old male and female FVBN and Mdr2KO mice were used. In experiments designed to measure the effect of various agonists and antagonists of Gal receptors, on the extent of liver fibrosis in Mdr2KO mice, 2 months old, male and female Mdr2KO mice were used, as well as FVBN mice as negative controls. Four to five animals in each group of age/gender/type (FVBN or Mdr2KO) were used. In parallel, an equal number of 2 months old, male and female FVBN and MDR2KO mice were treated with vehicle only (saline or 20% DMSO) via the same type of minipumps. Galanin, M871 and M40 peptides were dissolved in saline or 20% DMSO in saline, depending on their solubility, and administered by using Alzet osmotic minipumps (Cupertino, Calif.). Galanin, M871 and M40, were administered at a rate of 4 nmol/Kg/day (mice weights being 25-30 g). Vivo-morpholino oligos including two sequences specific to mouse GalR1, and one mouse GalR1 mismatch control, were administered at a rate of 25 μg/mouse/day, for 14 days, after which the mice were euthanized with euthasol, followed by exsanguination and collection of liver tissue.
Serum alanine aminotransferase (ALT), aspartate aminotransferase (AST), alkaline phosphatase (ALKP), CREA, BUN and CK were measured using the IDEXX Catalyst One instrument from IDEXX Laboratories, Inc (Houston, Tex.).
To investigate possible adverse effects of GalR antagonists on vital organs other than the liver, blood biomarkers of the heart (creatine kinase, CK) and kidneys (creatinine, CREA; blood urea nitrogen, BUN) were investigated in FVBN and Mdr2KO mice when treated with GalR1 vivo morpholino, M871, and M40 as compared to vehicle-treated mice.
Referring to Table 2, non-hepatic effects of GalR1 vivo morpholino, M871, and M40 Gal receptor antagonists on FVBN mice are shown. Several serum biomarkers including creatine kinase (CK) for heart, creatinine (CREA) and blood urea nitrogen (BUN) for kidney, were assessed by using IDEXX assay system. Normal range: CK, 68-1070 U/L; CREA, […]; BUN, […].

Substance	effects on heart (CK) and kidneys (CREA, BUN)	CK (Female FVBN mice) [U/L]	CK (Female Mdr2KO mice) [U/L]	CK (Male FVBN mice) [U/L]	CK (Male Mdr2KO mice) [U/L]	BUN (Female FVBN mice)	CREA (Female FVBN mice)	BUN (Female Mdr2KO mice)	CREA (Female Mdr2KO mice)	BUN (Male FVBN mice)	CREA (Male FVBN mice)	BUN (Male Mdr2KO mice)	CREA (Male Mdr2KO mice)
GWTLNSAGYLLGPPPALALA-NH2 [M40]	no effects on the heart or kidneys	151.30 ± 19.90	163.33 ± 63.33	190.00 ± 58.59	103.33 ± 3.33	–	–	–	–	–	–	–	–
WTLNSAGYLLGPEHPPPALALA-NH2 [M871]	no effects on the heart or kidneys	136.67 ± 36.67	213.33 ± 103.49	99.67 ± 0.88	230.00 ± 52.92	26.55 ± 1.67	0.79 ± 0.041	23.33 ± 0.49	0.68 ± 0.012	26.97 ± 0.83	0.81 ± 0.063	23.04 ± 0.92	0.67 ± 0.042

Source: US20220233640A1, “GALANIN- AND GALANIN RECEPTOR BASED COMPOUNDS FOR THE TREATMENT OF LIVER FIBROSIS” (United State Govermment as represented by the Department of …, priority 2019, published 2022)
